# Test results published in patent US9334264B2, “NAMPT inhibitors” (AbbVie Inc., priority 2012, dated 2016).
# Tests used:
# NAMPT = NAMPT (Homo sapiens, UniProt P43490); experiment: Time-Resolved Fluorescence Resonance Energy Transfer (TR-FRET) Binding Assay of NAMPT with PRPP; settings: 200 μM PRPP and 2.5 mM ATP; 2 nM NAMPT, 2 nM probe, equilibrated 16 hours
# Procedure, shortened: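 Compounds were equilibrated for 16 hours before TR-FRET readout, with substrates present (200 μM PRPP, 2.5 mM ATP) to permit enzymatic modification. Final mix: 2 nM His-tagged NAMPT, 2 nM probe, 1 nM Tb-anti-His antibody, 2% DMSO.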
# [1] = biological target: NAMPT (human, recombinant, C-terminally His-tagged) (Homo sapiens, UniProt P43490); experiment: Time-Resolved Fluorescence Resonance Energy Transfer (TR-FRET) Binding Assay of NAMPT; settings: absence of substrates; 6.8 nM NAMPT, 200 nM probe, equilibrated 3 hours
# Procedure, shortened: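 Compounds (typically 11 half-log dilutions, 2% DMSO final) equilibrated 3 h at room temperature with 6.8 nM human C-His NAMPT, 1 nM Tb-anti-His antibody and 200 nM fluorescent competitive probe in pH 7.5 HEPES buffer. IC50 derived by logistic fit of normalized TR-FRET ratio (520/495 nm).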
# NAMPT, sequence (P43490 whole entry): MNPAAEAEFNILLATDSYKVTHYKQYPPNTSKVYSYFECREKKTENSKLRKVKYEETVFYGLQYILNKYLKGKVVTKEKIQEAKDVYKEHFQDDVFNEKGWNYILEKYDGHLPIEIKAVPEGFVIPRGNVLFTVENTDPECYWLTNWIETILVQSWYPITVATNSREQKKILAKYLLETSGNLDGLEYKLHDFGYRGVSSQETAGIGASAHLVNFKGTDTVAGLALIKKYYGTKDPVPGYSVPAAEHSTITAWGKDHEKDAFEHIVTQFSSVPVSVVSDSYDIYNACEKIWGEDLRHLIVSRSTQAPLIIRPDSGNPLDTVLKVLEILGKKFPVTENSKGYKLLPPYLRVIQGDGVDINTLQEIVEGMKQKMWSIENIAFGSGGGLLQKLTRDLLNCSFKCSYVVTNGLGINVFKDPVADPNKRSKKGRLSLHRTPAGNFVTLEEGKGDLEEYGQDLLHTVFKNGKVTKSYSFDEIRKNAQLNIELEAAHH
# NAMPT (human, recombinant, C-terminally His-tagged), sequence (P43490 whole entry): as above
Compound,IC50 (NAMPT) [nM],IC50 [1] [nM]
"O=C(NCCCn1ccnc1)c1cnc(N(Cc2ccc(F)cc2)C(=O)CN2CCN(CCO)CC2)s1 [Example 42, 2-[(4-fluorobenzyl){[4-(2-hydroxyethyl)piperazin-1-yl]acetyl}amino]-N-[3-(1H-imidazol-1-yl)propyl]-1,3-thiazole-5-carboxamide]",24.6,> 10000
"CCOCC(O)CNC(=O)N(Cc1ccc(C#N)cc1)c1ncc(C(=O)NCCCn2ccnc2)s1 (stereo not shown) [Example 143, 2-{(4-cyanobenzyl)[(3-ethoxy-2-hydroxypropyl)carbamoyl]amino}-N-[3-(1H-imidazol-1-yl)propyl]-1,3-thiazole-5-carboxamide]",13.7,> 10000
"COCCC(=O)N(Cc1ncccn1)c1ncc(C(=O)NCCCn2ccnc2)s1 [Example 93, N-[3-(1H-imidazol-1-yl)propyl]-2-[(3-methoxypropanoyl)(pyrimidin-2-ylmethyl)amino]-1,3-thiazole-5-carboxamide]",16.6,> 10000
"CN1CCN(CC(=O)N(Cc2ccc(F)cc2)c2ncc(C(=O)NCCCn3ccnc3)s2)CC1 [Example 30, 2-{(4-fluorobenzyl)[(4-methylpiperazin-1-yl)acetyl]amino}-N-[3-(1H-imidazol-1-yl)propyl]-1,3-thiazole-5-carboxamide]",2.29,> 10000
"CC(C)C(CC(=O)O)NC(=O)N(Cc1ccc(C#N)cc1)c1ncc(C(=O)NCCCn2ccnc2)s1 (stereo not shown) [Example 168, 3-{[(4-cyanobenzyl)(5-{[3-(1H-imidazol-1-yl)propyl]carbamoyl}-1,3-thiazol-2-yl)carbamoyl]amino}-4-methylpentanoic acid]",1390,> 10000
"CCN(CC)CCCNC(=O)N(Cc1ccc(C#N)cc1)c1ncc(C(=O)NCCCn2ccnc2)s1 [Example 144, 2-[(4-cyanobenzyl){[3-(diethylamino)propyl]carbamoyl}amino]-N-[3-(1H-imidazol-1-yl)propyl]-1,3-thiazole-5-carboxamide]",33.2,> 10000
"O=C(NCCCn1ccnc1)c1cnc(N(Cc2ccc(F)cc2)C(=O)N2CCCOCC2)s1 [Example 73, N-(4-fluorobenzyl)-N-(5-{[3-(1H-imidazol-1-yl)propyl]carbamoyl}-1,3-thiazol-2-yl)-1,4-oxazepane-4-carboxamide]",7.04,> 10000
"COCCC(=O)N(c1ncc(C(=O)NCCCn2ccnc2)s1)C(C)c1ccccn1 (stereo not shown) [Example 110, N-[3-(1H-imidazol-1-yl)propyl]-2-{(3-methoxypropanoyl)[1-(pyridin-2-yl)ethyl]amino}-1,3-thiazole-5-carboxamide]",23.2,> 10000
"CC(C)CC(=O)N(Cc1ccc(C#N)cc1)c1ncc(C(=O)NCCCn2ccnc2)s1 [Example 50, 2-[(4-cyanobenzyl)(3-methylbutanoyl)amino]-N-[3-(1H-imidazol-1-yl)propyl]-1,3-thiazole-5-carboxamide]",2.52,1180
"CC(=O)NCC(C)CNC(=O)N(Cc1ccc(C#N)cc1)c1ncc(C(=O)NCCCn2ccnc2)s1 (stereo not shown) [Example 141, 2-[{[3-(acetylamino)-2-methylpropyl]carbamoyl}(4-cyanobenzyl)amino]-N-[3-(1H-imidazol-1-yl)propyl]-1,3-thiazole-5-carboxamide]",23.1,> 10000
"COCCC(=O)N(CCc1cccc(OC)c1)c1ncc(C(=O)NCCCn2ccnc2)s1 [Example 107, N-[3-(1H-imidazol-1-yl)propyl]-2-{[2-(3-methoxyphenyl)ethyl](3-methoxypropanoyl)amino}-1,3-thiazole-5-carboxamide acetate (1:1)]",2.24,814
"CCOC(=O)CCCNC(=O)N(Cc1ccc(C#N)cc1)c1ncc(C(=O)NCCCn2ccnc2)s1 [Example 160, ethyl 4-{[(4-cyanobenzyl)(5-{[3-(1H-imidazol-1-yl)propyl]carbamoyl}-1,3-thiazol-2-yl)carbamoyl]amino}butanoate]",195,> 10000
"COCCC(=O)N(CCc1ccc2c(c1)OCO2)c1ncc(C(=O)NCCCn2ccnc2)s1 [Example 102, 2-{[2-(1,3-benzodioxol-5-yl)ethyl](3-methoxypropanoyl)amino}-N-[3-(1H-imidazol-1-yl)propyl]-1,3-thiazole-5-carboxamide acetate (1:1)]",2.16,306

# Now those with a lower IC50 (NAMPT), led by results:
IC50 (NAMPT) [nM],IC50 [1] [nM],Compound
0.169,93.7,"Cc1cc(C(=O)N(CCC(C)C)c2ncc(C(=O)NCCCn3ccnc3)s2)no1 [Example 135, N-(5-{[3-(1H-imidazol-1-yl)propyl]carbamoyl}-1,3-thiazol-2-yl)-5-methyl-N-(3-methylbutyl)-1,2-oxazole-3-carboxamide]"
0.719,6070,"CC(C)CCN(Cc1cccc(F)c1)c1ncc(C(=O)NCCCn2ccnc2)s1 [Example 56, 2-[(3-fluorobenzyl)(3-methylbutyl)amino]-N-[3-(1H-imidazol-1-yl)propyl]-1,3-thiazole-5-carboxamide]"
0.709,8110,"O=C(NCCCn1ccnc1)c1cnc(N(Cc2ccc(F)cc2)C(=O)CN2CCC3(C2)OCCO3)s1 [Example 43, 2-[(1,4-dioxa-7-azaspiro[4.4]non-7-ylacetyl)(4-fluorobenzyl)amino]-N-[3-(1H-imidazol-1-yl)propyl]-1,3-thiazole-5-carboxamide]"
0.281,2940,"COCCN(C(=O)CCc1cccnc1)c1ncc(C(=O)NCCCn2ccnc2)s1 [Example 183, N-[3-(1H-imidazol-1-yl)propyl]-2-{(2-methoxyethyl)[3-(pyridin-3-yl)propanoyl]amino}-1,3-thiazole-5-carboxamide]"
1.72,7540,"COCCNC(=O)N(Cc1ccc(F)cc1)c1ncc(C(=O)NCCCn2ccnc2)s1 [Example 82, 2-{(4-fluorobenzyl)[(2-methoxyethyl)carbamoyl]amino}-N-[3-(1H-imidazol-1-yl)propyl]-1,3-thiazole-5-carboxamide]"
0.403,1750,"O=C(NCCCn1ccnc1)c1cnc(N(Cc2ccc(F)cc2)C(=O)c2ccc(F)cc2)s1 [Example 13, 2-[(4-fluorobenzoyl)(4-fluorobenzyl)amino]-N-[3-(1H-imidazol-1-yl)propyl]-1,3-thiazole-5-carboxamide]"
1.5,3560,"COCCC(=O)N(Cc1scnc1C)c1ncc(C(=O)NCCCn2ccnc2)s1 [Example 99, N-[3-(1H-imidazol-1-yl)propyl]-2-{(3-methoxypropanoyl)[(4-methyl-1,3-thiazol-5-yl)methyl]amino}-1,3-thiazole-5-carboxamide]"
0.868,> 10000,"O=C(NCCCn1ccnc1)c1cnc(N(Cc2ccc(F)cc2)C(=O)NC2CCCOC2)s1 (stereo not shown) [Example 92, 2-[(4-fluorobenzyl)(tetrahydro-2H-pyran-3-ylcarbamoyl)amino]-N-[3-(1H-imidazol-1-yl)propyl]-1,3-thiazole-5-carboxamide]"
0.338,> 10000,"COCCC(=O)N(CCC(=O)N1CCCC1)c1ncc(C(=O)NCCCn2ccnc2)s1 [Example 195, N-[3-(1H-imidazol-1-yl)propyl]-2-{(3-methoxypropanoyl)[3-oxo-3-(pyrrolidin-1-yl)propyl]amino}-1,3-thiazole-5-carboxamide]"
1.3,4180,"CC(C)OCCCNC(=O)N(Cc1ccc(C#N)cc1)c1ncc(C(=O)NCCCn2ccnc2)s1 [Example 126, 2-[(4-cyanobenzyl){[3-(propan-2-yloxy)propyl]carbamoyl}amino]-N-[3-(1H-imidazol-1-yl)propyl]-1,3-thiazole-5-carboxamide]"
0.631,3820,"CC(C)OCCNC(=O)N(Cc1ccc(C#N)cc1)c1ncc(C(=O)NCCCn2ccnc2)s1 [Example 123, 2-[(4-cyanobenzyl){[2-(propan-2-yloxy)ethyl]carbamoyl}amino]-N-[3-(1H-imidazol-1-yl)propyl]-1,3-thiazole-5-carboxamide]"
1.89,4570,"COCCC(=O)N(Cc1ccccc1C)c1ncc(C(=O)NCCCn2ccnc2)s1 [Example 119, N-[3-(1H-imidazol-1-yl)propyl]-2-[(3-methoxypropanoyl)(2-methylbenzyl)amino]-1,3-thiazole-5-carboxamide]"
0.893,3600,"CC(C)N1CCN(CC(=O)N(Cc2ccc(F)cc2)c2ncc(C(=O)NCCCn3ccnc3)s2)CC1 [Example 31, 2-[(4-fluorobenzyl){[4-(propan-2-yl)piperazin-1-yl]acetyl}amino]-N-[3-(1H-imidazol-1-yl)propyl]-1,3-thiazole-5-carboxamide]"
0.476,633,"COCCN(C(=O)Cc1ccc2ccccc2c1)c1ncc(C(=O)NCCCn2ccnc2)s1 [Example 185, N-[3-(1H-imidazol-1-yl)propyl]-2-[(2-methoxyethyl)(naphthalen-2-ylacetyl)amino]-1,3-thiazole-5-carboxamide]"
1.31,445,"COCCC(=O)N(CCc1cccc(F)c1)c1ncc(C(=O)NCCCn2ccnc2)s1 [Example 104, 2-{[2-(3-fluorophenyl)ethyl](3-methoxypropanoyl)amino}-N-[3-(1H-imidazol-1-yl)propyl]-1,3-thiazole-5-carboxamide acetate (1:1)]"
0.493,> 10000,"COCCC(=O)N(CCNC(=O)C(C)C)c1ncc(C(=O)NCCCn2ccnc2)s1 [Example 199, N-[3-(1H-imidazol-1-yl)propyl]-2-[(3-methoxypropanoyl){2-[(2-methylpropanoyl)amino]ethyl}amino]-1,3-thiazole-5-carboxamide]"
